Legend:
Cytochrome P450 2B6 [1] = molecular target: T1, Cytochrome P450 2B6 (Homo sapiens, UniProt P20813); assay: Binding affinity to recombinant CYP2B6 (unknown origin) assessed as spectral dissociation constant-1; details: read-out: Ks
T1 sequence (P20813 whole entry): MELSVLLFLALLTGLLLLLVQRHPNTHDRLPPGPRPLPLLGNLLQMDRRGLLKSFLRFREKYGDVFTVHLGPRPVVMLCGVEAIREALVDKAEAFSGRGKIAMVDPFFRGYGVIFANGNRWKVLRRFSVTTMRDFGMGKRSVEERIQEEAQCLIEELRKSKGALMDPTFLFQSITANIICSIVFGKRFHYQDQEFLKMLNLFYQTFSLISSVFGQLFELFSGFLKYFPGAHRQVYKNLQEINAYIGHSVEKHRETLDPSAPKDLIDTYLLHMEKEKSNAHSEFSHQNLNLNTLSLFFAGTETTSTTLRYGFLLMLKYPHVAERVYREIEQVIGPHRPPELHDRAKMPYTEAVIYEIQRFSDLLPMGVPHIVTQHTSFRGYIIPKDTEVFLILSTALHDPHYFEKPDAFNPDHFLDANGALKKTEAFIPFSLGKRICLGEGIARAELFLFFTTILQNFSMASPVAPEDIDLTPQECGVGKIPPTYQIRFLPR

Cytochrome P450 2B6 [2] = molecular target: T1, Cytochrome P450 2B6; assay: Binding affinity to recombinant CYP2B6 (unknown origin) assessed as spectral dissociation constant-2; details: read-out: Ks
Cytochrome P450 2B6 [3] = molecular target: T1, Cytochrome P450 2B6; assay: Drug metabolism assessed as CYP2B6 (unknown origin)-mediated d9-BuOH metabolite formation by measuring km; format: ADME
Cytochrome P450 2B6 [4] = molecular target: T1, Cytochrome P450 2B6; assay: Drug metabolism assessed as CYP2B6 (unknown origin)-mediated d9-BuOH metabolite formation by measuring Kcat; format: ADME
Cytochrome P450 2B6 [5] = molecular target: T1, Cytochrome P450 2B6; assay: Drug metabolism assessed as CYP2B6 (unknown origin)-mediated d4-BuOH metabolite formation by measuring km; format: ADME
Cytochrome P450 2B6 [6] = molecular target: T1, Cytochrome P450 2B6; assay: Drug metabolism assessed as CYP2B6 (unknown origin)-mediated d4-BuOH metabolite formation by measuring Kcat; format: ADME
Cytochrome P450 2B6 [7] = molecular target: T1, Cytochrome P450 2B6; assay: Drug metabolism assessed as CYP2B6 (unknown origin)-mediated metabolite formation by measuring km; format: ADME
Cytochrome P450 2B6 [8] = molecular target: T1, Cytochrome P450 2B6; assay: Drug metabolism assessed as CYP2B6 (unknown origin)-mediated metabolite formation by measuring Kcat; format: ADME

[2H]C([2H])([2H])C(N[C@]([2H])(C)C(=O)c1cccc(Cl)c1)(C([2H])([2H])[2H])C([2H])([2H])[2H] was tested. Which Kd (Cytochrome P450 2B6 [1]) did it give?
Its Kd is 3.91 µM.

And the Kd (Cytochrome P450 2B6 [2])?
Its Kd is 1180 µM.

What about the Km (Cytochrome P450 2B6 [3]) of the same molecule?
The Km was 264 µM.

And the Kcat (Cytochrome P450 2B6 [4])?
Its Kcat is 0.003865 s⁻¹.

How did the Kd (Cytochrome P450 2B6 [1]) turn out when [2H]C([2H])([2H])C(N[C@@]([2H])(C)C(=O)c1cccc(Cl)c1)(C([2H])([2H])[2H])C([2H])([2H])[2H] was run?
The Kd was 10.3 µM.

What about the Kd (Cytochrome P450 2B6 [2]) of the same molecule?
The Kd was 1140 µM.

What about the Km (Cytochrome P450 2B6 [3]) of the same molecule?
Its Km is 279 µM.

And the Kcat (Cytochrome P450 2B6 [4])?
Its Kcat is 0.02462 s⁻¹.

Which results are given for [2H]C([2H])([2H])[C@]([2H])(NC(C)(C)C)C(=O)c1cccc(Cl)c1?
Kd (Cytochrome P450 2B6 [1]): 2870 µM; Km (Cytochrome P450 2B6 [5]): 131 µM; Kcat (Cytochrome P450 2B6 [6]): 0.05578 s⁻¹

Which results are given for CC(NC(C)(C)C)C(=O)c1cccc(Cl)c1 (racemic) [BUPROPION]?
Kd (Cytochrome P450 2B6 [1]): 314 µM; Km (Cytochrome P450 2B6 [7]): 94.7 µM; Kcat (Cytochrome P450 2B6 [8]): 0.14 s⁻¹

[2H]C([2H])([2H])[C@@]([2H])(NC(C)(C)C)C(=O)c1cccc(Cl)c1 was tested. Which Kd (Cytochrome P450 2B6 [1]) did it give?
Its Kd is 11300 µM.

And the Km (Cytochrome P450 2B6 [5])?
Its Km is 266 µM.

And the Kcat (Cytochrome P450 2B6 [6])?
Its Kcat is 0.061 s⁻¹.

Reference: ChEMBL document CHEMBL5214950 (Bioorg Med Chem Lett, 2022)
